Experimental data: ChEMBL document CHEMBL1201862, “PubChem BioAssay data set” (2004)
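Following 48 hours of exposure in 96-well plates, responses at five concentrations were used to interpolate endpoints linearly. At the GI50, growth is halved.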 The source made the active and inactive calls. No stated cut-off is given here; in the data, active = GI50 up to about 1.1 µM and inactive = higher.

Experiments:
Assay in all cases: NCI tumour cell line growth inhibition, 48 h
PC-3 = tested on: PC-3
SNB-19 = tested on: SNB-19
HOP-92 = tested on: HOP-92
RPMI-8226 = tested on: RPMI-8226
NCI-H226 = tested on: NCI-H226
HCT-15 = tested on: HCT-15
SF-539 = tested on: SF-539
SNB-75 = tested on: SNB-75
MDA-N = tested on: MDA-N
SK-OV-3 = tested on: SK-OV-3
SF-268 = tested on: SF-268
786-0 = tested on: 786-0
K562 = tested on: K562
NCI-H460 = tested on: NCI-H460
HCC 2998 = tested on: HCC 2998
OVCAR-5 = tested on: OVCAR-5
MCF7 = tested on: MCF7
UACC-62 = tested on: UACC-62
Hs-578T = tested on: Hs-578T

SMILES	GI50 (PC-3)	GI50 (SNB-19)	GI50 (HOP-92)	GI50 (RPMI-8226)	GI50 (NCI-H226)	GI50 (HCT-15) [µM]	GI50 (SF-539)	GI50 (SNB-75)	GI50 (MDA-N)	GI50 (SK-OV-3)	GI50 (SF-268)	GI50 (786-0)	GI50 (K562)	GI50 (NCI-H460)	GI50 (HCC 2998)	GI50 (OVCAR-5)	GI50 (MCF7)	GI50 (UACC-62)	GI50 (Hs-578T)
O=c1c2ccccc2nc(-c2cc3c(cc2Cl)Sc2nccn2S3(=O)=O)n1-c1ccccc1	16.5 µM (inactive)	40.8 µM (inactive)	22.9 µM (inactive)	12.9 µM (inactive)	> 100 µM (inactive)	12.9	20.4 µM (inactive)	21.4 µM (inactive)	15.6 µM (inactive)	> 100 µM (inactive)	7.1 µM (inactive)	30.1 µM (inactive)	18.8 µM (inactive)	37.3 µM (inactive)	15.1 µM (inactive)	> 100 µM (inactive)	14.2 µM (inactive)	26.4 µM (inactive)	12.2 µM (inactive)
COC(=O)[C@@H]1C[C@]2(Br)c3ccccc3N(S(=O)(=O)c3ccccc3)[C@@H]2N1C(=O)OC	> 100 µM (inactive)	> 100 µM (inactive)	> 100 µM (inactive)	93.1 µM (inactive)	85.7 µM (inactive)	67.3	> 100 µM (inactive)	66.8 µM (inactive)	> 100 µM (inactive)	> 100 µM (inactive)	> 100 µM (inactive)	> 100 µM (inactive)	> 100 µM (inactive)	> 100 µM (inactive)	84.3 µM (inactive)	51.3 µM (inactive)	> 100 µM (inactive)	62.1 µM (inactive)	83.9 µM (inactive)
COc1cc(C)cc(C(=O)OCc2ccccc2)c1C1=C(Cl)C(=O)C(Cl)=CC1=O	> 10 µM (inactive)	> 10 µM (inactive)	3.51 µM (inactive)	> 5.79 µM (inactive)	> 10 µM (inactive)	> 10	> 10 µM (inactive)	> 10 µM (inactive)	> 10 µM (inactive)	> 10 µM (inactive)	> 10 µM (inactive)	> 5.71 µM (inactive)	2.27 µM (inactive)	> 10 µM (inactive)	> 10 µM (inactive)	> 10 µM (inactive)	> 9.42 µM (inactive)	> 10 µM (inactive)	> 10 µM (inactive)
CC(C)(C)N/N=C(/Cc1nc2c3c(ccc2nc1O)C(=O)c1ccccc1C3=O)C(=O)NC1=C(Cl)C(=O)c2ccccc2C1=O	7.71 µM (inactive)	72.8 µM (inactive)	31.6 µM (inactive)	78.9 µM (inactive)	10.7 µM (inactive)	4.26	21 µM (inactive)	2.38 µM (inactive)	15.1 µM (inactive)	7.16 µM (inactive)	6.97 µM (inactive)	33.2 µM (inactive)	85.3 µM (inactive)	5.42 µM (inactive)	17.9 µM (inactive)	> 100 µM (inactive)	20 µM (inactive)	21.2 µM (inactive)	24.7 µM (inactive)
COc1cc2c(NCCCCCCO[N+](=O)[O-])ncnc2c(OC)c1OC	20.7 µM (inactive)	66.5 µM (inactive)	14.6 µM (inactive)	10.2 µM (inactive)	16 µM (inactive)	24	24.7 µM (inactive)	> 69.5 µM (inactive)	20.6 µM (inactive)	49.3 µM (inactive)	25.5 µM (inactive)	26 µM (inactive)	29.2 µM (inactive)	22.3 µM (inactive)	0.399 µM (active)	30.2 µM (inactive)	17.6 µM (inactive)	18.2 µM (inactive)	29.2 µM (inactive)
CN1COCc2cc3cc4c(cc3nc21)OCCO4	91.8 µM (inactive)	> 100 µM (inactive)	38.8 µM (inactive)	4.72 µM (inactive)	> 100 µM (inactive)	> 100	> 100 µM (inactive)	> 100 µM (inactive)	> 100 µM (inactive)	> 100 µM (inactive)	> 100 µM (inactive)	> 100 µM (inactive)	> 100 µM (inactive)	44.8 µM (inactive)	> 100 µM (inactive)	> 100 µM (inactive)	21.2 µM (inactive)	> 100 µM (inactive)	0.0452 µM (active)
CC1(C)CCC(C)(C)C1C(=O)NC(O)C(=O)O (stereo not given)	> 100 µM (inactive)	> 100 µM (inactive)	2.43 µM (inactive)	> 100 µM (inactive)	> 100 µM (inactive)	> 100	> 100 µM (inactive)	> 100 µM (inactive)	> 100 µM (inactive)	> 100 µM (inactive)	> 100 µM (inactive)	> 100 µM (inactive)	> 100 µM (inactive)	> 100 µM (inactive)	> 100 µM (inactive)	> 100 µM (inactive)	> 100 µM (inactive)	> 100 µM (inactive)	> 100 µM (inactive)
CC1CC[C@@]2(OC1)OC1C[C@H]3[C@@H]4CC[C@H]5CC(OC6OC(CO)C(OC7OC(CO)C(O)C(O)C7O)C(O)C6O)CCC5(C)[C@H]4CCC3(C)C1[C@@H]2C (stereo not given in full)	7.45 µM (inactive)	9.04 µM (inactive)	8.57 µM (inactive)	13.7 µM (inactive)	8.81 µM (inactive)	12.6	8.38 µM (inactive)	9.93 µM (inactive)	8.2 µM (inactive)	10.1 µM (inactive)	9.57 µM (inactive)	8.26 µM (inactive)	12.5 µM (inactive)	9.04 µM (inactive)	5.85 µM (inactive)	8.65 µM (inactive)	5.85 µM (inactive)	10.1 µM (inactive)	8.57 µM (inactive)
CCOC(=O)C1C(=O)CC(O)(c2ccccc2)C(C(=O)OCC)C1c1ccc(N(C)C)cc1 (stereo not given)	18.3 µM (inactive)	29.9 µM (inactive)	19.7 µM (inactive)	13.3 µM (inactive)	51.4 µM (inactive)	34.7	18.1 µM (inactive)	24.9 µM (inactive)	6.44 µM (inactive)	18.2 µM (inactive)	24.9 µM (inactive)	26.7 µM (inactive)	6.21 µM (inactive)	20 µM (inactive)	34.4 µM (inactive)	74.3 µM (inactive)	21.8 µM (inactive)	33.4 µM (inactive)	2.1 µM (inactive)
COc1cc(/C=C2/SC(c3ccccc3)N(c3ccc(Cl)cc3)C2=O)cc(OC)c1OC (stereo not given)	28.6 µM (inactive)	> 58.2 µM (inactive)	> 100 µM (inactive)	2.99 µM (inactive)	> 100 µM (inactive)	8.13	> 100 µM (inactive)	95.3 µM (inactive)	2.37 µM (inactive)	9.48 µM (inactive)	19.5 µM (inactive)	> 100 µM (inactive)	0.244 µM (active)	8 µM (inactive)	> 100 µM (inactive)	> 100 µM (inactive)	3.96 µM (inactive)	2.02 µM (inactive)	> 100 µM (inactive)
O=C1c2ccccc2C2CNC1(O)c1ccccc12 (stereo not given)	> 100 µM (inactive)	> 100 µM (inactive)	> 100 µM (inactive)	> 100 µM (inactive)	35.1 µM (inactive)	> 100	> 100 µM (inactive)	> 100 µM (inactive)	> 100 µM (inactive)	> 100 µM (inactive)	> 100 µM (inactive)	> 100 µM (inactive)	> 100 µM (inactive)	> 100 µM (inactive)	> 100 µM (inactive)	> 100 µM (inactive)	> 100 µM (inactive)	> 100 µM (inactive)	> 100 µM (inactive)
Cn1cc(S(=O)(=O)NC(=O)Nc2ccc(Cl)cc2)c2ccccc21	43.9 µM (inactive)	> 100 µM (inactive)	> 100 µM (inactive)	> 100 µM (inactive)	83.8 µM (inactive)	4.5	11.1 µM (inactive)	> 100 µM (inactive)	27.4 µM (inactive)	55.5 µM (inactive)	> 100 µM (inactive)	> 100 µM (inactive)	> 100 µM (inactive)	57.4 µM (inactive)	51.4 µM (inactive)	46.1 µM (inactive)	56 µM (inactive)	12.4 µM (inactive)	> 100 µM (inactive)
Nc1ccc2c(=O)cc(-c3cccs3)[nH]c2n1	1.74 µM (inactive)	7.38 µM (inactive)	9.1 µM (inactive)	1.54 µM (inactive)	2.42 µM (inactive)	1.29	1.48 µM (inactive)	2.46 µM (inactive)	0.223 µM (active)	5.25 µM (inactive)	8.93 µM (inactive)	3.45 µM (inactive)	0.847 µM (active)	2.77 µM (inactive)	2.19 µM (inactive)	15.3 µM (inactive)	1.12 µM (inactive)	2.3 µM (inactive)	3.66 µM (inactive)
O=[N+]([O-])c1cc(F)ccc1S(=O)(=O)c1ccccc1	> 10 µM (inactive)	> 10 µM (inactive)	> 10 µM (inactive)	> 10 µM (inactive)	> 10 µM (inactive)	> 10	> 10 µM (inactive)	> 10 µM (inactive)	> 10 µM (inactive)	> 10 µM (inactive)	> 10 µM (inactive)	> 10 µM (inactive)	> 10 µM (inactive)	> 10 µM (inactive)	> 10 µM (inactive)	> 10 µM (inactive)	> 10 µM (inactive)	> 10 µM (inactive)	> 10 µM (inactive)
CCCCCCCCCCCCCCCCCC(=O)OCC(COC1OC(CS(=O)(=O)O)C(O)C(O)C1O)OC(=O)CCCCCCCCCCCCCCCCC (stereo not given)	> 100 µM (inactive)	> 100 µM (inactive)	45.2 µM (inactive)	> 100 µM (inactive)	> 100 µM (inactive)	> 100	> 100 µM (inactive)	10.4 µM (inactive)	> 100 µM (inactive)	> 100 µM (inactive)	> 100 µM (inactive)	> 100 µM (inactive)	> 100 µM (inactive)	> 100 µM (inactive)	> 100 µM (inactive)	> 100 µM (inactive)	> 100 µM (inactive)	> 100 µM (inactive)	> 100 µM (inactive)
